Columns and labels:
human factor XIa = target: T1, human factor XIa (Homo sapiens, UniProt P03951); assay: Measurement of FXIa inhibition (fluorogenic peptide substrate Boc-Glu(OBzl)-Ala-Arg-AMC); type: biochemical; details: factor XIa from Kordia, 15 min preincubation, 30 min at 22° C., fluorescence; some as mean values from multiple determinations
T1 construct: purchased Kordia
Experimental: (§1) The factor XIa inhibition of the substances according to the invention is determined using a biochemical test system which utilizes the reaction of a peptidic factor XIa substrate to determine the enzymatic activity of human factor XIa. Here, factor XIa cleaves from the peptidic factor XIa substrate the C-terminal aminomethylcoumarin (AMC), the fluorescence of which is measured. The determinations are carried out in microtitre plates.
Test substances are dissolved in dimethyl sulfoxide and serially diluted in dimethyl sulfoxide (3000 μM to 0.0078 μM; resulting final concentrations in the test: 50 μM to 0.00013 μM). In each case 1 μl of the diluted substance solutions is placed into the wells of white microtitre plates from Greiner (384 wells). 20 μl of assay buffer (50 mM of Tris/HCl pH 7.4; 100 mM of sodium chloride; 5 mM of calcium chloride; 0.1% of bovine serum albumin) and 20 μl of factor XIa from Kordia (0.45 nM in assay buffer) are then added successively. After 15 min of incubation, the enzyme reaction is started by addition of 20 μl of the factor XIa substrate Boc-Glu(OBzl)-Ala-Arg-AMC dissolved in assay buffer (10 μM in assay buffer) from Bachem, the mixture is incubated at room temperature (22° C.) for 30 min and fluorescence is then measured (excitation: 360 nm, emission: 460 nm). The measured emissions of the test batches with test substance are compared to those of control batches without test substance (only dimethyl sulfoxide instead of test substance in dimethyl sulfoxide), and IC50 values are calculated from the concentration/activity relationships.

human plasma kallikrein = target: T2, human plasma kallikrein (Homo sapiens, UniProt P03952); assay: Determination of the plasma kallikrein activity (fluorogenic peptide substrate H-Pro-Phe-Arg-AMC); type: biochemical; details: plasma kallikrein from Kordia, 15 min preincubation, 30 min at 22° C., fluorescence; some as mean values from multiple determinations
T2 construct: purchased Kordia
T2 sequence (P03952 391-638 limits assumed): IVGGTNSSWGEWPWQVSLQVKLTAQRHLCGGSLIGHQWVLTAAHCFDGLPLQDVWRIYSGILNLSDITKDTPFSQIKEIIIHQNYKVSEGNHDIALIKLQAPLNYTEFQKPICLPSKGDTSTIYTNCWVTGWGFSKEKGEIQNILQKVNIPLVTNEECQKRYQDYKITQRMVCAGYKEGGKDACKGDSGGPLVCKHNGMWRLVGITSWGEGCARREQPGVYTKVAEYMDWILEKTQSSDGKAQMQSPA
T2 sequence (P03952 20-390 partner limits assumed): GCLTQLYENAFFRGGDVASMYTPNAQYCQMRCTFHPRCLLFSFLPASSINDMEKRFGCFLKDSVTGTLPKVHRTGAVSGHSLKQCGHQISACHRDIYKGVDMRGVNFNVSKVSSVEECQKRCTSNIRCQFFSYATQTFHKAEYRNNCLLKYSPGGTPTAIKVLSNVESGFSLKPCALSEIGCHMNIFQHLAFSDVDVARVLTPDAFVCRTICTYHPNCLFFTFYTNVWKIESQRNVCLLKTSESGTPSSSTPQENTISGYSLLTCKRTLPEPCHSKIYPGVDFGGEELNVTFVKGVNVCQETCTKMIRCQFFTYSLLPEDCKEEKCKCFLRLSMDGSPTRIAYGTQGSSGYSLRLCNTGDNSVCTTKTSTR
Experimental: as §1, with “To determine the plasma kallikrein” for “The factor XIa”, “invention,” for “invention is determined using”, “system is used” for “system”, “plasma kallikrein” for “factor XIa”, “plasma kallikrein.” for “factor XIa.”
Test substances are dissolved in dimethyl sulfoxide and serially diluted in dimethyl sulfoxide (3000 μM to 0.0078 μM; resulting final concentrations in the test: 50 μM to 0.00013 μM). In each case 1 μl of the diluted substance solutions is placed into the wells of white microtitre plates from Greiner (384 wells). 20 μl of assay buffer (50 mM Tris/HCl pH 7.4; 100 mM sodium chloride solution; 5 mM of calcium chloride solution; 0.1% of bovine serum albumin) and 20 μl of plasma kallikrein from Kordia (0.6 nM in assay buffer) are then added successively. After 15 min of incubation, the enzyme reaction is started by addition of 20 μl of the substrate H-Pro-Phe-Arg-AMC dissolved in assay buffer (10 μM in assay buffer) from Bachem, the mixture is incubated at room temperature (22° C.) for 30 min and fluorescence is then measured (excitation: 360 nm, emission: 460 nm). The measured emissions of the test batches with test substance are compared to those of control batches without test substance (only dimethyl sulfoxide instead of test substance in dimethyl sulfoxide), and IC50 values are calculated from the concentration/activity relationships. Activity data from this test are listed in Table B below (some as mean values from multiple independent individual determinations): […]

T1 sequence (P03951 388-625 limits assumed): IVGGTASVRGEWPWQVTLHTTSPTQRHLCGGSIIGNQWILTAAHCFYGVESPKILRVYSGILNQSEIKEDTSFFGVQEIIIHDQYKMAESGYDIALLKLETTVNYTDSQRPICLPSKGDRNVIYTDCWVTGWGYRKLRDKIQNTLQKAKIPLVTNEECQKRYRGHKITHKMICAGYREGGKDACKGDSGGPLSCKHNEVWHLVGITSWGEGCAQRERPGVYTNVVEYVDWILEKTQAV
T1 sequence (P03951 19-387 partner limits assumed): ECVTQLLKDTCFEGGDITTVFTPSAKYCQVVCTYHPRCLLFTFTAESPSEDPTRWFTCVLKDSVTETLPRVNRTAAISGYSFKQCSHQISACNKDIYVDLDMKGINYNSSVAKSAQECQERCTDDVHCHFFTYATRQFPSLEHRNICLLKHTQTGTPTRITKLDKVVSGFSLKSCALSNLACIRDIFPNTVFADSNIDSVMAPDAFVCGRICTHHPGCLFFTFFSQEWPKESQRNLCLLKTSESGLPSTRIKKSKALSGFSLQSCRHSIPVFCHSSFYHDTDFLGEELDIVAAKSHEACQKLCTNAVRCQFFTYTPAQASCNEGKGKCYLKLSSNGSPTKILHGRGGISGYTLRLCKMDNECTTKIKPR

SMILES	IC50 (human factor XIa) [nM]	IC50 (human plasma kallikrein) [nM]
CO[C@@H](C)CC(C(=O)Nc1ccc(C(N)=O)cc1)n1cc2c(cc1=O)-c1cc(Cl)ccc1C[C@@H](C(F)(F)F)OC2 (mixture of isomers) [Example 66, 4-({(4S)-2-[(7S)-11-Chloro-2-oxo-7-(trifluoromethyl)-7,8-dihydro-2H-[3]benzoxocino[5,6-c]pyridin-3(5H)-yl]-4-methoxypentanoyl}amino)benzamide]	5.1	320
CC(C)C1Cc2ccc(Cl)cc2-c2cc(=O)n(C(C[C@@H]3COCCO3)C(=O)Nc3ccc(C(N)=O)c(F)c3)cc2CO1 (mixture of isomers) [Example 40, 4-({2-(11-Chloro-7-isopropyl-2-oxo-7,8-dihydro-2H-[3]benzoxocino[5,6-c]pyridin-3(5H)-yl)-3-[(2R)-1,4-dioxan-2-yl]propanoyl}amino)-2-fluorobenzamide]	41	4800
CC1Cc2ccc(Cl)cc2-c2cc(=O)n(C(C[C@@H]3CCCCO3)C(=O)Nc3ccc(C(N)=O)cc3)cc2CO1 (mixture of isomers) [Example 5, 4-({2-(11-Chloro-7-methyl-2-oxo-7,8-dihydro-2H-[3]benzoxocino[5,6-c]pyridin-3(5H)-yl)-3-[(2S)-tetrahydro-2H-pyran-2-yl]propanoyl}amino)benzamide]	4.3	400
CC(C)[C@@H]1Cc2ccc(Cl)cc2-c2cc(=O)n([C@@H](C[C@@H]3COCCO3)C(=O)Nc3ccc(C(N)=O)cc3)cc2CO1 (single isomer, unassigned) [Example 43]	1.7	380
CC[C@@H](C(=O)Nc1ccc(C(N)=O)c(F)c1)n1cc2c(cc1=O)-c1cc(Cl)ccc1C[C@@H](C(F)F)OC2 (single isomer, unassigned) [Example 47]	56	1500
NC(=O)c1ccc(NC(=O)[C@H](C[C@@H]2CCCCO2)n2cc3c(cc2=O)-c2cc(Cl)ccc2C[C@@H](C(F)(F)F)OC3)cc1F (single isomer, unassigned) [Example 51]	4.2	360
NC(=O)c1ccc(NC(=O)C(C[C@@H]2CCCCO2)n2cc3c(cc2=O)-c2cc(Cl)ccc2CC(C(F)(F)F)OC3)cc1F (mixture of isomers) [Example 50, 4-({2-[11-Chloro-2-oxo-7-(trifluoromethyl)-7,8-dihydro-2H-[3]benzoxocino[5,6-c]pyridin-3(5H)-yl]-3-[(2S)-tetrahydro-2H-pyran-2-yl]propanoyl}amino)-2-fluorobenzamide]	14	1100
CC(C)[C@@H]1Cc2ccc(Cl)cc2-c2cc(=O)n([C@@H](C[C@@H]3CCCCO3)C(=O)Nc3ccc(C(N)=O)c(F)c3)cc2CO1 (single isomer, unassigned) [Example 39]	–	2000

Now those with a lower IC50 (human plasma kallikrein), led by results:

IC50 (human factor XIa) [nM]	IC50 (human plasma kallikrein) [nM]	SMILES
26	250	CO[C@@H](C)C[C@@H](C(=O)Nc1ccc(C(N)=O)cc1)n1cc2c(cc1=O)-c1c(ccc(Cl)c1F)C[C@@H](C)O[C@H]2C (single isomer, unassigned) [Example 79]
3.5	220	CO[C@@H](C)C[C@@H](C(=O)Nc1ccc(C(N)=O)cc1)n1cc2c(cc1=O)-c1cc(Cl)ccc1C[C@@H](C(F)(F)F)OC2 (single isomer, unassigned) [Example 67]
1.6	47	CO[C@@H](C)C[C@@H](C(=O)Nc1ccc(C(N)=O)cc1)n1cc2c(cc1=O)-c1c(ccc(Cl)c1F)C[C@@H](C)OC2 (single isomer, unassigned) [Example 29]
6.6	71	C[C@@H]1Cc2ccc(Cl)cc2-c2cc(=O)n([C@@H](CCOC3CC3)C(=O)Nc3ccc(C(N)=O)cc3)cc2CO1 (single isomer, unassigned) [Example 27]
6.9	170	CC[C@@H](C(=O)Nc1ccc(C(N)=O)cc1)n1cc2c(cc1=O)-c1c(ccc(Cl)c1F)C[C@@H](C(F)(F)F)OC2 (single isomer, unassigned) [Example 68]
